Each structure is given as a SMILES string. A value given as a limit tells only on which side of the number the result lay.

As a reminder, the EC50 is the concentration that produces a half-maximal response.

In the experiment the test system is phospho-ERK in melanoma derived WM-266-4 cells. Nature of the experiment: Mechanistic cellular assay for Raf kinase activity (phospho-ERK, Bio-Plex). Type of experiment: cell-based. The following applies: Homo sapiens, treated 1-2 hr at 37° C., serum free medium, read-out: pERK EC50. The text has this:
(2) Mechanistic Cellular Assay for Raf Kinase Activity
The following method was utilized for quantifying the amount of phospho-ERK in melanoma derived WM-266-4 cells (one allele each of wild type BRaf and mutant BRaf (V600D) as an indicator of Raf kinase activity in cells treated with various kinase inhibitors.
(1) Detached adhered WM-266-4 cells from flask using 0.25% Trypsin. Resuspended cells in growth media (90% RPMI 1640, 10% FBS) and determine cell density.
(2) Seeded cells @ 10,000 cells/well in 96-well (flat bottom) tissue culture plates (36,000 cells/cm^2). Added growth media to a final volume of 200 uL/well and incubated overnight at 37° C.
(1) Prepared compound dilutions (1000× in DMSO) as follows. Starting with a stock of 5 mM compound in DMSO, diluted serially 3-fold in DMSO for a total of eight concentrations (5 mM, 1.67 mM, 0.556 mM, 0.185 mM, 0.062 mM, 0.021 mM, 0.007 mM, 0.002 mM).
(2) Prepared compound-containing media by adding 1 mL treatment media (100% RPMI 1640 without FBS) to 1 μL of compound dilution (from step 3).
(3) Removed plates (from step 2) from incubator. Aspirated media and replace with 150 μL compound-containing media. Incubate for 1-2 hr at 37° C.
(4) Removed plates (from step 5) from incubator and treated each as follows: aspirated compound-containing media and replaced with 300 μL ice-cold 1×PBS, aspirated PBS and replaced with 45 μL lysis buffer (Biorad Bio-Plex lysis buffer containing 0.4% v/v lysis buff. Factor 1, 0.2% v/v lysis buff. Factor 2, and PMSF to 2 mM final concentration), and then placed plate on ice until all plates were treated.
(5) After all plates were processed (step 6), placed plates on an orbital shaker and shook at room temperature for at least 15 min.
(6) Finally, removed plates from shaker, and transfered 40 μL/well of lysate from each to new corresponding 96-well V-bottom plates. At this point, samples may be frozen and stored @−80 C.°.
(1) Thaw (if necessary) plates (from step 8) and added 40 μL of Phospho-Protein Assay Buffer to each 40 μL lysate for a 1:1 dilution.
(2) Prepared phospho-ERK1,2 Bioplex beads by diluting 1:50 with Bioplex Wash Buffer (mixing 49 μL Wash Buffer with 1 μL of phospho-ERK1,2 Bioplex beads for each sample to be analyzed). Protected from light by wrapping tube in aluminum foil and kept at room temperature.
(3) Prepared Filter Plate by adding 100 μL/well Bioplex Wash Buffer and removed by vacuum filtration.
(4) Add 50 μL of bead solution (from step 10) to each well of a prepared Filter Plate (from step 11) and vacuum filter. Wash/filter 2× with 100 μL/well Wash Buffer.
(5) Added 50 μL of each lysate to appropriate well of the Filter Plate (from step 12). For this and all subsequent plate incubation steps, placed plate on an inverted plate cover (reduces background), and wrapped in aluminum foil (to protect from light). Shook overnight at room temperature. Included positive (control lysate) and negative (lysis buffer) controls.
(1) Prepared detection antibody (phospho-ERK1,2 Ab) by diluting 1:25 with Detection Antibody Dilution Buffer Buffer (mixing 24 μL Detection Antibody Dilution Buffer with 1 μL of phospho-ERK1,2 Ab for each sample to be analyzed).
(2) Removed plate (from step 13) from shaker and vacuum filter. Washed/filter plate 3× with 100 μL/well Wash Buffer. Added 25 μL of diluted antibody to each well. Incubated on shaker at RT for 30-45 min.
(3) Prepared streptavidin-PE by diluting 1:100 with Wash Buffer (mixing 49.5 μL Wash Buffer with 0.5 μL of 100× streptavidin-PE for each sample to be analyzed). Protected from light.
(4) Removed plate (from step 15) from shaker and vacuum filter. Washed/filter plate 3× with 100 μL/well Wash Buffer. Add 50 μL of diluted streptavidin-PE solution (from step 16) to each sample well. Incubated on shaker for 10-20 min.
(5) Removed plate from shaker and vacuum filter. Wash/filter plate 3× with 100 μL/well Bead Resuspension Buffer. After last wash resuspended beads in 125 μL Bead Resuspension Buffer. […]
In the case of `Cc1nc2cnc(C(=O)NC(C)c3ncc(Nc4ccc(C(F)(F)F)cc4)s3)cn2c1Cl` (stereo not drawn) [Example 308], the EC50 lay within 1 to 10 µM. Under `CC(NC(=O)c1cc2c(cn1)ncn2C)c1cnc(Nc2ccc(C(C)(C)C(F)(F)F)cc2)s1` (stereo not drawn) [Example 272] stands 0.1 to 1 µM. Under `C[C@@H](NC(=O)c1cnc2n1CC(=O)N2)c1ncc(C(=O)Nc2cc(C(F)(F)F)c(Cl)cn2)s1` [Example 170] stands 0.1 to 1 µM; under `CC(NC(=O)c1cc2cn[nH]c2cn1)c1cnc(Nc2ccc(C(F)(F)F)cc2)s1` (stereo not drawn) [Example 202], 1 to 10 µM.

For the compound `Cc1nc2cnc(C(=O)NC(C)c3cnc(Nc4ccc(C(F)(F)F)cc4)s3)cc2n1C` (stereo not drawn) [Example 10], the half-maximal effective concentration (EC50) was 0.1 to 1 µM.

As to `CCS(=O)(=O)N1CC(n2cnc3cnc(C(=O)N[C@H](C)c4cnc(Nc5ccc(C(F)(F)F)cc5)cn4)cc32)C1` [Example 342], the concentration for a half-maximal effect (EC50) is at most 0.1 µM. Under `CC(NC(=O)c1ccc2[nH]ncc2c1)c1ccc(C(=O)Nc2cccc(C(F)(F)F)c2)s1` (stereo not drawn) [Example 195] stands 1 to 10 µM; under `CC(NC(=O)c1cc2c(cn1)ncn2C1CCCCC1)c1cnc(Nc2ccc(C(F)(F)F)cc2)s1` (stereo not drawn) [Example 18], 0.1 to 1 µM.

Take `CC(NC(=O)c1cc2c(cn1)ncn2C1CCOCC1)c1cnc(Nc2ccc(C(F)(F)F)cc2)s1` (stereo not drawn) [Example 9]: the EC50 is at most 0.1 µM. Under `CC(NC(=O)c1cc2c(cn1)ncn2C(C)C)c1cnc(Nc2ccc(C(F)(F)F)cc2)cn1` (stereo not drawn) [Example 80] stands 0.1 to 1 µM; under `C[C@H](NC(=O)c1cc2c(cn1)ncn2C)c1cnc(Nc2ccc(C(F)(F)F)cc2)cn1` (single isomer, unassigned) [Example 36], 1 to 10 µM.

As to `CC(NC(=O)c1cc2c(cn1)ncn2C)c1cnc(Nc2cccc(C(C)(C)C(F)(F)F)c2)s1` (stereo not drawn) [Example 278], the EC50 is at most 0.1 µM.

As for `COc1cn2ncnc(C(=O)NC(C)c3cnc(Nc4ccc(C(F)(F)F)cc4)s3)c2c1C` (stereo not drawn) [Example 337], the EC50 lay in the range of 0.1 to 1 µM. Under `CC(NC(=O)c1cc2c(cn1)ncn2C)c1cnc(Nc2ccc(S(=O)(=O)C(F)(F)F)cc2)s1` (stereo not drawn) [Example 250] stands 0.1 to 1 µM. Under `C[C@H](NC(=O)c1cc2c(cn1)ncn2C)c1cnc(Nc2ccc(Cl)c(C(F)(F)F)c2)cn1` (single isomer, unassigned) [Example 237] stands 1 to 10 µM; under `C[C@@H](NC(=O)c1cnc(N)n1C1CC1)c1ncc(C(=O)Nc2cc(C(F)(F)F)c(Cl)cn2)s1` [Example 154], 0.1 to 1 µM; under `C[C@@H](NC(=O)c1cnc2ncccn12)c1ncc(C(=O)Nc2cc(C(F)(F)F)c(Cl)cn2)s1` [Example 137], 0.1 to 1 µM. Consider `C[C@@H](NC(=O)c1cnc2sccn12)c1ncc(C(=O)Nc2cc(C(F)(F)F)c(Cl)cn2)s1` [Example 165], for which the concentration giving a half-maximal response (EC50) is 0.1 to 1 µM. Under `Cc1nc(C(F)(F)F)ccc1Nc1ncc(C(C)NC(=O)c2cc3c(cn2)ncn3C)s1` (stereo not drawn) [Example 259] stands 0.1 to 1 µM; under `C[C@@H](NC(=O)c1cnc(NCCN2CCCC2)s1)c1ncc(C(=O)Nc2cc(C(F)(F)F)c(Cl)cn2)s1` [Example 105], 0.1 to 1 µM; under `Cc1nc2cnc(C(=O)NC(C)c3ncc(Nc4ccc(C(F)(F)F)cc4)s3)cn2c1N` (stereo not drawn) [Example 305], 0.1 to 1 µM. Under `CC(NC(=O)c1cn2c(NC(C)(C)CC(C)(C)C)cnc2cn1)c1ncc(Nc2ccc(C(F)(F)F)cc2)s1` (stereo not drawn) [Example 301] stands 1 to 10 µM; under `CC(NC(=O)c1cc2c(cn1)ncn2C)c1cnc(Nc2ccc(Cl)c(C(F)(F)F)c2)s1` (stereo not drawn) [Example 258], 0.1 to 1 µM; under `C[C@@H](NC(=O)c1cnn2cccnc12)c1ncc(C(=O)Nc2cc(C(F)(F)F)c(Cl)cn2)s1` [Example 226], 0.1 to 1 µM. Under `CC(NC(=O)c1cccc(N2CCOCC2)n1)c1ncc(C(=O)Nc2cc(C(F)(F)F)c(Cl)cn2)s1` (stereo not drawn) [Example 88] stands 0.1 to 1 µM. As to `CC(NC(=O)c1ccc2cn[nH]c2c1)c1ccc(C(=O)Nc2cccc(C(F)(F)F)c2)s1` (stereo not drawn) [Example 194], the concentration giving a half-maximal response (EC50) lay within 1 to 10 µM. Under `CC(=N)Nc1nc2cnc(C(=O)NC(C)c3cnc(Nc4ccc(C(F)(F)F)cc4)s3)cc2n1C` (stereo not drawn) [Example 200] stands 1 to 10 µM; under `CC(NC(=O)c1ncc2ncn(C)c2n1)c1cnc(Nc2ccc(C(F)(F)F)cc2)cn1` (stereo not drawn) [Example 191], 1 to 10 µM.

In the case of `C[C@@H](NC(=O)c1cc2c(cn1)ncn2CCS(C)(=O)=O)c1cnc(Nc2ccc(C(F)(F)F)cc2)cn1` [Example 186], the EC50 was in the range of 0.1 to 1 µM. Under `CCc1ncc(C(=O)N[C@H](C)c2ncc(C(=O)Nc3cc(C(F)(F)F)c(Cl)cn3)s2)n1CC` [Example 163] stands 0.1 to 1 µM; under `C[C@@H](NC(=O)c1cnc2cnccn12)c1ncc(C(=O)Nc2cc(C(F)(F)F)c(Cl)cn2)s1` [Example 312], at most 0.1 µM; under `C[C@@H](NC(=O)c1cnc2ccccn12)c1ncc(C(=O)Nc2cc(C(F)(F)F)c(Cl)cn2)s1` [Example 135], at most 0.1 µM. Under `CC(NC(=O)c1cc2c(cn1)ncn2CCN1CCOCC1)c1cnc(Nc2ccc(C(F)(F)F)cc2)s1` (stereo not drawn) [Example 8] stands at most 0.1 µM; under `C[C@@H](NC(=O)c1ccc2c(c1)NC(=O)CO2)c1ncc(C(=O)Nc2cc(C(F)(F)F)c(Cl)cn2)s1` [Example 66], at most 0.1 µM; under `CC(NC(=O)c1cc2c(cn1)ncn2C)c1cnc(Nc2ccc(C3(C)CC3)cc2)s1` (stereo not drawn) [Example 277], 0.1 to 1 µM. As for `CC(C)S(=O)(=O)N1CC(n2cnc3cnc(C(=O)N[C@H](C)c4cnc(Nc5ccc(C(F)(F)F)cc5)cn4)cc32)C1` [Example 343], the 50% effective concentration (EC50) was at most 0.1 µM. For the compound `CC(NC(=O)c1cccc(-c2cccnc2)c1)c1ncc(C(=O)Nc2cc(C(F)(F)F)c(Cl)cn2)s1` (stereo not drawn) [Example 47], the EC50 fell in the range of 0.1 to 1 µM.

Consider `C[C@@H](NC(=O)c1cnc2[nH]ccc2c1)c1ncc(C(=O)Nc2cc(C(F)(F)F)c(Cl)cn2)s1` [Example 81], for which the EC50 is at most 0.1 µM. Under `C[C@@H](NC(=O)c1cnn(C)c1Cl)c1ncc(C(=O)Nc2cc(C(F)(F)F)c(Cl)cn2)s1` [Example 124] stands at most 0.1 µM. Under `CCN1CC(n2cnc3cnc(C(=O)NC(C)c4cnc(Nc5cnc(C(C)(C)C)nc5)s4)cc32)C1` (stereo not drawn) [Example 288] stands 0.1 to 1 µM; under `Cc1nc(-c2cnccn2)sc1C(=O)N[C@H](C)c1ncc(C(=O)Nc2cc(C(F)(F)F)c(Cl)cn2)s1` [Example 100], 1 to 10 µM; under `CC(NC(=O)c1cnn2cc(-c3cccnc3F)ccc12)c1nc(C(=O)Nc2cc(C(F)(F)F)c(Cl)cn2)cs1` (stereo not drawn) [Example 324], 0.1 to 1 µM.

`CCCn1ncc(C(=O)N[C@H](C)c2ncc(C(=O)Nc3cc(C(F)(F)F)c(Cl)cn3)s2)c1C` [Example 122]: the EC50 is 0.1 to 1 µM.

As to `Cc1ncc(C(=O)N[C@H](C)c2ncc(C(=O)Nc3cc(C(F)(F)F)c(Cl)cn3)s2)n1-c1ccccn1` [Example 161], the EC50 fell in the range of 0.1 to 1 µM. Under `CCn1cnc2cnc(C(=O)NC(C)c3cnc(Nc4ccc(C(F)(F)F)cc4)cn3)cc21` (stereo not drawn) [Example 38] stands at most 0.1 µM.

`CC(NC(=O)c1cc2c(cn1)ncn2C)c1cnc(Nc2ccccc2)s1` (stereo not drawn) [Example 247]: the half-maximal effective concentration (EC50) was 1 to 10 µM. Under `CC(NC(=O)c1cncc(Br)c1)c1ncc(C(=O)Nc2cc(C(F)(F)F)c(Cl)cn2)s1` (stereo not drawn) [Example 50] stands 1 to 10 µM. Under `CC(NC(=O)c1cnc2n1CCN(C(=O)OC(C)(C)C)C2)c1cnc(Nc2ccc(C(F)(F)F)cc2)s1` (stereo not drawn) [Example 313] stands 1 to 10 µM.

The record behind these values is patent publication US20120040951A1, “HETEROARYL COMPOUNDS USEFUL AS RAF KINASE INHIBITORS” (priority 2008, published 2012).
